# Patent publication US20120029187A1, “HALOALKYLSULFONANILIDE DERIVATIVE” (Nissan Chemical Industries, Ltd., priority 2009, published 2012)
# Legend:
# Type in all cases: in vivo
# barnyardgrass [1] = test: Test Example 1: herbicidal effects in preemergence treatment under submerged conditions; conditions: dose 2.52 g/a
# Method in brief: (§1)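 Alluvial soil flooded to 4 cm depth; barnyardgrass, bulrush and ducksalad sown and 2.5-leaf rice seedlings transplanted. Same day, water-diluted emulsifiable concentrates applied to the water surface at set doses (g/a). Kept at 25–30 °C in greenhouse; effects scored 0–5 by mortality after three weeks.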
# bulrush [2] = test: as above; conditions: dose 2.52 g/a
# Method in brief: as §1
# ducksalad [3] = test: as above; conditions: dose 2.52 g/a
# Method in brief: as §1
# transplanted rice = test: Test Example 1: preemergence treatment under submerged conditions, effect on crop; conditions: dose 2.52 g/a
# Method in brief: as §1
# barnyardgrass [4] = test: Test Example 2: herbicidal effects during the vegetation period under submerged conditions; conditions: treatment during the vegetation period under submerged conditions; dose 2.52 g/a
# Method in brief: (§2)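 Barnyardgrass, bulrush and ducksalad were co-sown in alluvial soil flooded to 4 cm and grown in a greenhouse at 25 to 30° C. At the 1- or 2-leaf stage, water-diluted emulsifiable concentrates went onto the water surface at set doses (g/a). Herbicidal effect was scored three weeks later on a graded scale.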
# bulrush [5] = test: as above; conditions: treatment during the vegetation period under submerged conditions; dose 2.52 g/a
# Method in brief: as §2
# ducksalad [6] = test: as above; conditions: treatment during the vegetation period under submerged conditions; dose 2.52 g/a
# Method in brief: as §2
# Italian ryegrass [7] = test: Test Example 3: herbicidal effects in soil treatment; conditions: dose 3.2 g/a
# Method in brief: (§3)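 Seeds were sown in sterilized diluvial soil and covered with about 1.5 cm of soil. Compounds, formulated as emulsifiable concentrates and diluted with water, were sprayed evenly over the soil surface at set doses in g/a. Herbicidal effect was scored on a rating scale three weeks later.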
# barnyardgrass [8] = test: as above; conditions: dose 3.2 g/a
# Method in brief: as §3
# common chickweed [9] = test: as above; conditions: dose 3.2 g/a
# Method in brief: as §3
# common lambsquater [10] = test: as above; conditions: dose 3.2 g/a
# Method in brief: as §3
# common ragweed [11] = test: as above; conditions: dose 3.2 g/a
# Method in brief: as §3
# giant foxtail [12] = test: as above; conditions: dose 3.2 g/a
# Method in brief: as §3
# large crabgrass [13] = test: as above; conditions: dose 3.2 g/a
# Method in brief: as §3
# posumbu knotweed [14] = test: as above; conditions: dose 3.2 g/a
# Method in brief: as §3
# redroot pigweed [15] = test: as above; conditions: dose 3.2 g/a
# Method in brief: as §3
# velvetleaf [16] = test: as above; conditions: dose 3.2 g/a
# Method in brief: as §3
# water foxtail [17] = test: as above; conditions: dose 3.2 g/a
# Method in brief: as §3
# wild oat [18] = test: as above; conditions: dose 3.2 g/a
# Method in brief: as §3
# Italian ryegrass [19] = test: Test Example 4: herbicidal effect in foliage treatment; conditions: dose 3.2 g/a, three weeks after application
# Method in brief: (§4)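 Herbicidal effect was rated on an evaluation scale three weeks after treatment. Plants had been raised 14 days at 25 to 30° C in sterilized diluvial soil, then received foliar sprays of emulsifiable concentrate diluted in water at predetermined doses expressed as g per are.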
# barnyardgrass [20] = test: as above; conditions: dose 3.2 g/a, three weeks after application
# Method in brief: as §4
# beadstraw = test: as above; conditions: dose 3.2 g/a, three weeks after application
# Method in brief: as §4
# common chickweed [21] = test: as above; conditions: dose 3.2 g/a, three weeks after application
# Method in brief: as §4
# common lambsquater [22] = test: as above; conditions: dose 3.2 g/a, three weeks after application
# Method in brief: as §4
# common ragweed [23] = test: as above; conditions: dose 3.2 g/a, three weeks after application
# Method in brief: as §4
# giant foxtail [24] = test: as above; conditions: dose 3.2 g/a, three weeks after application
# Method in brief: as §4
# large crabgrass [25] = test: as above; conditions: dose 3.2 g/a, three weeks after application
# Method in brief: as §4
# posumbu knotweed [26] = test: as above; conditions: dose 3.2 g/a, three weeks after application
# Method in brief: as §4
# redroot pigweed [27] = test: as above; conditions: dose 3.2 g/a, three weeks after application
# Method in brief: as §4
# velvetleaf [28] = test: as above; conditions: dose 3.2 g/a, three weeks after application
# Method in brief: as §4
# water foxtail [29] = test: as above; conditions: dose 3.2 g/a, three weeks after application
# Method in brief: as §4
# wild oat [30] = test: as above; conditions: dose 3.2 g/a, three weeks after application
# Method in brief: as §4
Compound,"A: barnyardgrass, herbicidal effect (evaluation scale 0-5) (barnyardgrass [1])","B: bulrush, herbicidal effect (evaluation scale 0-5) (bulrush [2])","C: ducksalad, herbicidal effect (evaluation scale 0-5) (ducksalad [3])","a: transplanted rice, effect on crop (evaluation scale 0-5) (transplanted rice)","A: barnyardgrass, herbicidal effect (evaluation scale 0-5) (barnyardgrass [4])","B: bulrush, herbicidal effect (evaluation scale 0-5) (bulrush [5])","C: ducksalad, herbicidal effect (evaluation scale 0-5) (ducksalad [6])","H: Italian ryegrass, herbicidal effect (evaluation scale 0-5) (Italian ryegrass [7])","A: barnyardgrass, herbicidal effect (evaluation scale 0-5) (barnyardgrass [8])","N: common chickweed, herbicidal effect (evaluation scale 0-5) (common chickweed [9])","L: common lambsquater, herbicidal effect (evaluation scale 0-5) (common lambsquater [10])","J: common ragweed, herbicidal effect (evaluation scale 0-5) (common ragweed [11])","E: giant foxtail, herbicidal effect (evaluation scale 0-5) (giant foxtail [12])","D: large crabgrass, herbicidal effect (evaluation scale 0-5) (large crabgrass [13])","M: posumbu knotweed, herbicidal effect (evaluation scale 0-5) (posumbu knotweed [14])","K: redroot pigweed, herbicidal effect (evaluation scale 0-5) (redroot pigweed [15])","I: velvetleaf, herbicidal effect (evaluation scale 0-5) (velvetleaf [16])","G: water foxtail, herbicidal effect (evaluation scale 0-5) (water foxtail [17])","F: wild oat, herbicidal effect (evaluation scale 0-5) (wild oat [18])","H: Italian ryegrass, herbicidal effect (Italian ryegrass [19])",also measured
CC1COCC(=O)N1Cc1ccccc1NS(=O)(=O)C(F)(F)F (stereo not shown) [Compound I-13],5 (mortality of 90% or above (nearly complete death)),5 (mortality of 90% or above (nearly complete death)),5 (mortality of 90% or above (nearly complete death)),1 (mortality of at least 5% and less than 20%),5 (mortality of 90% or above (nearly complete death)),5 (mortality of 90% or above (nearly complete death)),5 (mortality of 90% or above (nearly complete death)),5 (mortality of 90% or above (nearly complete death)),5 (mortality of 90% or above (nearly complete death)),5 (mortality of 90% or above (nearly complete death)),5 (mortality of 90% or above (nearly complete death)),5 (mortality of 90% or above (nearly complete death)),5 (mortality of 90% or above (nearly complete death)),5 (mortality of 90% or above (nearly complete death)),5 (mortality of 90% or above (nearly complete death)),5 (mortality of 90% or above (nearly complete death)),5 (mortality of 90% or above (nearly complete death)),5 (mortality of 90% or above (nearly complete death)),3 (mortality of at least 40% and less than 70%),5 (mortality of 90% or above (nearly complete death)),"A: barnyardgrass, herbicidal effect (barnyardgrass [20]): 5 (mortality of 90% or above (nearly complete death)); O: beadstraw, herbicidal effect (beadstraw): 4 (mortality of at least 70% and less than 90%); N: common chickweed, herbicidal effect (common chickweed [21]): 4 (mortality of at least 70% and less than 90%); L: common lambsquater, herbicidal effect (common lambsquater [22]): 3 (mortality of at least 40% and less than 70%); J: common ragweed, herbicidal effect (common ragweed [23]): 4 (mortality of at least 70% and less than 90%); E: giant foxtail, herbicidal effect (giant foxtail [24]): 4 (mortality of at least 70% and less than 90%); D: large crabgrass, herbicidal effect (large crabgrass [25]): 5 (mortality of 90% or above (nearly complete death)); M: posumbu knotweed, herbicidal effect (posumbu knotweed [26]): 3 (mortality of at least 40% and less than 70%); K: redroot pigweed, herbicidal effect (redroot pigweed [27]): 3 (mortality of at least 40% and less than 70%); I: velvetleaf, herbicidal effect (velvetleaf [28]): 5 (mortality of 90% or above (nearly complete death)); G: water foxtail, herbicidal effect (water foxtail [29]): 5 (mortality of 90% or above (nearly complete death)); F: wild oat, herbicidal effect (wild oat [30]): 0 (mortality of less than 5% (almost ineffective))"
CCOC(=O)N(c1ccccc1CN1C(=O)COCC1C)S(=O)(=O)C(F)(F)F (stereo not shown) [Compound I-14],5 (mortality of 90% or above (nearly complete death)),5 (mortality of 90% or above (nearly complete death)),5 (mortality of 90% or above (nearly complete death)),0 (mortality of less than 5% (almost ineffective)),5 (mortality of 90% or above (nearly complete death)),5 (mortality of 90% or above (nearly complete death)),5 (mortality of 90% or above (nearly complete death)),5 (mortality of 90% or above (nearly complete death)),5 (mortality of 90% or above (nearly complete death)),5 (mortality of 90% or above (nearly complete death)),5 (mortality of 90% or above (nearly complete death)),5 (mortality of 90% or above (nearly complete death)),5 (mortality of 90% or above (nearly complete death)),5 (mortality of 90% or above (nearly complete death)),5 (mortality of 90% or above (nearly complete death)),5 (mortality of 90% or above (nearly complete death)),5 (mortality of 90% or above (nearly complete death)),5 (mortality of 90% or above (nearly complete death)),4 (mortality of at least 70% and less than 90%),5 (mortality of 90% or above (nearly complete death)),"A: barnyardgrass, herbicidal effect (barnyardgrass [20]): 5 (mortality of 90% or above (nearly complete death)); O: beadstraw, herbicidal effect (beadstraw): 4 (mortality of at least 70% and less than 90%); N: common chickweed, herbicidal effect (common chickweed [21]): 4 (mortality of at least 70% and less than 90%); L: common lambsquater, herbicidal effect (common lambsquater [22]): 5 (mortality of 90% or above (nearly complete death)); J: common ragweed, herbicidal effect (common ragweed [23]): 4 (mortality of at least 70% and less than 90%); E: giant foxtail, herbicidal effect (giant foxtail [24]): 4 (mortality of at least 70% and less than 90%); D: large crabgrass, herbicidal effect (large crabgrass [25]): 4 (mortality of at least 70% and less than 90%); M: posumbu knotweed, herbicidal effect (posumbu knotweed [26]): 4 (mortality of at least 70% and less than 90%); K: redroot pigweed, herbicidal effect (redroot pigweed [27]): 4 (mortality of at least 70% and less than 90%); I: velvetleaf, herbicidal effect (velvetleaf [28]): 5 (mortality of 90% or above (nearly complete death)); G: water foxtail, herbicidal effect (water foxtail [29]): 5 (mortality of 90% or above (nearly complete death)); F: wild oat, herbicidal effect (wild oat [30]): 0 (mortality of less than 5% (almost ineffective))"
